Several values for one entry are separate records, joined by “and”; a condition that tells them apart may be missing. Identical values can stand only once.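 Tested at 5 concentrations; 48 h exposure; 96-well plates; endpoints linearly interpolated, else capped at highest concentration. GI50 = concentration required for 50% inhibition of growth. TGI marks complete inhibition of growth.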
Columns and labels:
Assay in all cases: inhibition of tumour cell growth, NCI panel, 48 h
[1] = system: NCI-H460 lung
[2] = system: HL-60(TB) leukemia
[3] = system: MCF7 breast
[4] = system: SK-MEL-2 melanoma
[5] = system: LOX IMVI melanoma
[6] = system: OVCAR-3 ovarian
[7] = system: CAKI-1 renal
[8] = system: ACHN renal
[9] = system: SW-620 colon
[10] = system: 786-0 renal

SMILES | GI50 [1] | TGI [1] | GI50 [2] | TGI [2] | GI50 [3] | TGI [3] | GI50 [4] | TGI [4] | GI50 [5] | TGI [5] | GI50 [6] | TGI [6] | GI50 [7] | TGI [7] | GI50 [8] | TGI [8] [µM] | GI50 [9] | TGI [9] | GI50 [10] | TGI [10] [µM]
COC(=O)c1sc(=S)c2sc(C(=O)OC)c(C(=O)OC)c2c1C(=O)OC | 44.3 µM | > 100 µM | 21.9 µM | 62.3 µM | 40 µM | > 100 µM | 38.7 µM | > 100 µM | 46.3 µM | > 100 µM | 35.5 µM | > 100 µM | 58.1 µM | > 100 µM | 40.3 µM | > 100 | 74.8 µM | > 100 µM | 89.4 µM | > 100
CNc1ccc(CSc2ccc(C)cc2)cc1 | 25.3 µM | > 100 µM | 1.32 µM | 4.28 µM | 21.2 µM | > 100 µM | 38.5 µM | > 100 µM | 14.5 µM | > 100 µM | 11.7 µM | > 100 µM | 7.94 µM | > 100 µM | 34 µM | > 100 | 18.6 µM | > 100 µM | 4.45 µM | > 100
CC(C)(C)OC(=O)CC(S(=O)(=O)c1ccccc1)S(=O)(=O)c1ccccc1 | 19.5 µM | 39.4 µM | 3.19 µM | 12.2 µM | 13.5 µM | 33 µM | 17 µM | 36.2 µM | 13.8 µM | 33.2 µM | 1.88 µM | 3.29 µM | 1.66 µM | 3.52 µM | 1.75 µM | 3.19 | 1.64 µM | 3.17 µM | 13.9 µM | 27.4
Nc1nc2c(ncn2C2OC(CO)C(O)C2O)c(=O)[nH]1 (stereo unspecified) | > 100 µM and 15.5 µM | > 100 µM and 154 µM | > 100 µM | > 100 µM and 99.7 µM | > 100 µM | > 100 µM and 223 µM | > 100 µM | > 100 µM and 158 µM | > 100 µM | > 100 µM and 145 µM |  | 235 µM | 55.5 µM | > 100 µM and 214 µM | > 100 µM | > 100 | > 100 µM | > 100 µM and 241 µM | > 100 µM | > 100
CC(C)(C)c1cnc(CSc2cnc(NC(=O)C3CCNCC3)s2)o1 | 0.306 µM and 0.319 µM | 25.4 µM and > 10 µM | 0.0937 µM and 0.0791 µM | 0.976 µM and 0.461 µM | 0.0522 µM and 0.0505 µM | > 53.3 µM | 0.124 µM and 0.197 µM | 0.284 µM and 0.518 µM | 0.218 µM and 0.131 µM | 14.5 µM and > 10 µM | 0.223 µM and 0.181 µM | 3.61 µM and > 2.95 µM | 3.89 µM and > 3 µM | 32.7 µM and > 10 µM | 2.12 µM and 2.14 µM | > 52.1 | 0.256 µM and 0.274 µM | > 100 µM | 0.47 µM and 0.698 µM | > 47.7
CN1CCC(C(=O)Nc2n[nH]c3nnc(-c4ccccc4)cc23)CC1 | > 25 µM | > 25 µM | > 25 µM | > 25 µM | 10.2 µM | > 25 µM | > 20.1 µM | > 25 µM | 20.3 µM | > 25 µM | 10.1 µM | > 25 µM | > 25 µM | > 25 µM | > 25 µM | > 25 | > 25 µM | > 25 µM | > 25 µM | > 25
Cc1cc(=O)[nH]c2c1C(=O)c1c(C)cc(=O)n(C)c1C2=O |  | 0.364 µM |  | 0.374 µM |  | 0.0356 µM |  | 0.0592 µM |  | 0.26 µM |  | 0.151 µM |  | 0.258 µM |  | 0.223 |  | 0.179 µM |  | 0.182
Cc1nc2sc(C(=O)Nc3cccc(Cl)c3)c(N)c2cc1C(O)c1ccccc1 (stereo unspecified) | 0.379 µM | 1.85 µM | 0.401 µM | 6.67 µM | 0.373 µM | 16.9 µM | 2.43 µM | 26.5 µM | 0.687 µM | 22.5 µM | 0.587 µM | 21.6 µM | 0.789 µM | 17 µM | 0.884 µM | 13.4 | 0.351 µM | 19.7 µM | 2.47 µM | 20.7
CN(C)CC(=O)N1CCc2c([nH]c3ccccc23)C1c1cccnc1 (stereo unspecified) |  | > 100 µM |  | > 100 µM | 70.2 µM | > 100 µM | > 100 µM | > 100 µM |  | > 100 µM |  | > 100 µM |  | > 100 µM |  | > 100 |  | > 100 µM |  | > 100
NCC[PH+](c1ccccc1)c1ccccc1.NCC[PH+](c1ccccc1)c1ccccc1.[Cl-].[Pt+4] | 84.5 µM | > 100 µM | 1.8 µM | > 57.8 µM | > 100 µM | > 100 µM | > 100 µM | > 100 µM | > 100 µM | > 100 µM | > 100 µM | > 100 µM | > 100 µM | > 100 µM | > 100 µM | > 100 | > 100 µM | > 100 µM | > 100 µM | > 100
Clc1cc(Cl)cc(Nc2ccc3c(OCCCN4CCOCC4)cccc3n2)c1 | 2.42 µM | 5.86 µM | 2.11 µM | 6.34 µM | 1.74 µM | 3.48 µM | 3.45 µM | 9.51 µM | 1.72 µM | 3.24 µM | 2.92 µM | 9.63 µM | 7.59 µM | 22.9 µM | 3.02 µM | 10.3 | 1.86 µM | 3.69 µM | 1.69 µM | 3.22
CC1(C)N=C(N)N=C(N)N1c1ccc(CCCCCCc2ccc(S(=O)(=O)F)cc2)cc1 |  | > 37.8 µM |  | > 37.3 µM |  | > 32.3 µM |  | 30.2 µM |  | > 20.9 µM |  | 32.4 µM |  | 44.3 µM |  | 14.4 |  | 4.44 µM |  | 16.5
COc1ccc(-c2nn(-c3cccc(Cl)c3)cc2-c2c(C#N)c(=O)n3[nH]c(-c4ccc(C)o4)nc3c2C#N)cc1 | 6.38 µM | > 50 µM | 4.88 µM | 23.5 µM | 1.75 µM | > 50 µM | 6.57 µM | 18.1 µM | 3.92 µM | 12.3 µM | 5.68 µM | 19 µM | 6.8 µM | > 50 µM | 7.61 µM | > 50 | 9.21 µM | > 50 µM | 9.42 µM | > 50

Reference: PubChem BioAssay (NCI)
